From patent US20110165652A1, “COMPOSITIONS, METHODS AND SYSTEMS FOR SINGLE MOLECULE SEQUENCING” (LIFE TECHNOLOGIES CORPORATION, priority 2008, published 2011)
“Also recorded” adds a separate entry of the source.

Tests used:
Type in all cases: biochemical
[1] = Initial tests of reaction rate of alpha-phosphate modified dGTP; settings: data not shown
[2] = Exonuclease activity of Phi29 variants; settings: printed in column Ensemble Extension Activity or in text
[3] = system: template specifying incorporation of a single γ-labeled nucleotide; experiment: Real time on-surface single molecule detection of γ-labeled nucleotide incorporation; settings: for Activity on Detection System: more signals: number of signals relative to parent enzyme; for Activity on Detection System: Signals detected (timing of appearance) / Activity on Detection System: high ASB signals / Activity on Detection System: long duration signals: relative to parent enzyme
Procedure: Real time “On surface” experiments were performed to characterize the activity of the Phi29 variants on an exemplary single molecule sequencing system (FIGS. 72A and B). Chambered slides were prepared to facilitate injection and multiple experiments data collection from several chambers using a single slide. The template specified incorporation of a single γ-labeled nucleotide. The samples were excited using a 488 nm Argon ion laser at 2.5 mW and the data were collected at 25 ms integration time. Each stream of data was collected for 1500 frames, consecutive streams were collected for ˜5 minutes by moving to new fields of views (FOVs). FRETAN software was used to obtain the donor and acceptor traces.
After trace analysis, the selected signals (with acceptor signal over background greater than 4, i.e., ASN≧4) were characterized by examining attributes including duration, ASN and timing of signal appearance (i.e., start of signals). The variants that are of special interest include Variants 2 and 3.

γ-dGTP = experiment: 7-base homopolymeric extension reactions (FIG. 19B, 19C); settings: for extension under limiting conditions: 30 second to 1 minute extension time
Source text: When the aspartic acid at position 456 is mutated, the activity is reduced but still detectable. FIG. […]
Three residues that have been implicated in catalysis of nucleotide incorporation by phi29 DNA polymerase are D458, D456, and V250 (Berman, Kamtekar et al., 2007). […] In one embodiment, D456 is mutated to glutamic acid, thus distorting the active site, but still allowing catalysis due to the presence of the functional group. The backbone of V250 additionally appears to play a role in catalysis; in some embodiments, the chemistry step will be slowed by mutating the V250 residue to an isoleucine or alanine in order to slow the chemistry step.

[4] = system: 5′ fluorescein-labeled primer:template duplex; experiment: Ensemble primer extension with gamma-labeled dNTP by Phi29 mutant protein; settings: for Ensemble Extension Activity: γ-nucleotide incorporation: relative to parent Phi29 exo(−) D12A/D66A, 0.5 μM or 5 μM gamma-labeled dNTP, 10 seconds to 5 minutes; for extension (FIG. 70C, 70D): ensemble PAGE analyses
Source text: Table 1, below, summarizes the ability of each mutant Phi29 polymerase to incorporate gamma-labeled nucleotides (as indicated in the column entitled “Ensemble Extension Activity”), fidelity of replication (as indicated in the column entitled “Fidelity”) and for activity in a single-molecule detected system, as depicted in FIGS. 20-59′ and 69-76 and associated description (see below), and indicated in the last column, entitled “Activity on Detection System.” Each and every mutation introduced into a given Phi29 mutant protein is listed in the column entitled “Mutations”; mutations are designated by the original amino acid/its position/its replacement, e.g., V250A means that valine at position 250 was replaced by alanine by site specific mutagenesis. If two or more amino acid substitutions are made, then each is designated as above and separated by a “/”. The predicted effect of a given mutation on polymerase activity, based on structure-function analysis of Phi29 polymerase, is provided in the column entitled “Expected Effect.” The various Phi29 mutants generated via selective mutagenesis, along with any applicable results of extension studies, fidelity assays and single molecule detection studies using each mutant protein, are collectively summarized in Table 1, below. To perform the extension studies, 330 nM Phi29 mutant protein and 100 nM 5′ fluorescein-labeled primer:template duplex were co-incubated in a solution comprising 50 mM Tris (pH 7.0), 2 mM MnCl2, 2 mM DTT, 0.1% Triton-X-100, 0.01% Tween-20. The reactions were initiated by addition of 0.5 μM or 5 μM of gamma-labeled dNTP, and quenched via addition of 30 mM EDTA at timepoints ranging from 10 seconds to 5 minutes. The reaction products were then separated on a 20% denaturing acrylamide gel and imaged on a Bio-Rad Molecular Imager FX. The intensity of each reaction product was quantified using Bio-Rad Quantity One software. FIGS. 20-59′ depict the results of extension studies conducted using specific Phi29 mutants.

dG2Oy650 = experiment: Inc50: nucleotide concentration at which half of the primer is extended one base in sixty seconds; settings: dG2Oy650 in duplicate
Source text: In one exemplary embodiment, an alanine was substituted for the valine at position 250. As is seen in FIG. 70C (Variant 5) the rate of extension by this mutant polymerase is decreased relative to wild type. […] To compensate for the reduced extension we combined V250A with several mutations that increase binding efficiency of γ-modified nucleotides. […] As is seen in FIG. 70C, Variant 2, the extension of the V250A mutant is improved through introduction of the E375Y mutation. The mutation V250A was also combined with the mutations E375A/Q380A as well as E375C.

[5] = system: 5′ fluorescein-labeled primer:template duplex; experiment: Replication fidelity: primer extension with incorrect (non-complementary) gamma-labeled nucleotide; settings: incorrect gamma-labeled nucleotide in lieu of the complementary one
Procedure: To assay the replication fidelity of each mutant Phi29 polymerase protein, primer extensions were carried out in the same manner, except that an incorrect (i.e., non-complementary) gamma-labeled nucleotide was added to the extension mixture in lieu of the complementary nucleotide, and the amount of extended product following extension in presence of the incorrect nucleotide was analyzed.

[6] = system: template specifying incorporation of a single γ-labeled nucleotide followed by a base-labeled nucleotide; experiment: On-surface single molecule detection, single γ-labeled nucleotide followed by a base-labeled nucleotide; settings: for frequency of γ-signals detected: single γ and base-labeled nucleotide incorporation
Procedure: Similar experiments were performed using a template specifying incorporation of a single γ-labeled nucleotide followed by a base-labeled nucleotide and data were analyzed as described above.
Example sets of signals detected using Phi29 variants over time are shown (FIGS. 72-75). […] Next, considering the appearance of BL-signals, the signals for the parent enzyme (#1) are nicely distributed and follow a Gaussian distribution (peak in the 121-180 second bin), whereas Variant 2's BL-signals appear between 0-120 seconds—again indicating an earlier appearance of signals when Variant 2 is compared with the parent enzyme.

Q: With `BP(=O)(OCC1OC(n2cnc3c(=O)[nH]c(N)nc32)CC1O)OP(=O)(O)OP(=O)(O)O` (stereo not drawn) [[alpha]-P-borano-dGTP] as the molecule, how does the “reduction of reaction rate as compared to the natural counterpart” value [1] read?
A: Its value is 1.32 fold.

Q: For `Nc1nc2c(ncn2[C@H]2C[C@H](O)[C@@H](COP(O)(=S)OP(=O)(O)OP(=O)(O)O)O2)c(=O)[nH]1` (stereo partly drawn) [[alpha]-P-thiol-dGTP], which “reduction of reaction rate as compared to the natural counterpart” value [1] is on record?
A: The value was 1.61 fold.

Q: With “D12A/D66A/D169A: Phi29 polymerase exo minus variant” as the molecule, how does the exonuclease activity [2] read?
A: Its exonuclease activity is “exo deficient”.

Q: Which exonuclease activity [2] does the source give for “D169A: Phi29 polymerase variant generated by total DNA synthesis [Variant D169A]” here?
A: Its exonuclease activity is “exo deficient”.

Q: Which “Activity on Detection System: more signals” value (“Activity … more signals” below) [3] does the source give for “D456E: Phi29 exo(−) (D12A/D66A) polymerase mutant [Variant D456E]” here?
A: Its value is “Fewer signals”.

Q: And the “extension under limiting conditions” value (γ-dGTP; 1 μM γ-dGTP)?
A: The value was “significant impact”.

Q: And the “Ensemble Extension Activity: first base extension” value ([4]; γ-nucleotides)?
A: The value was “Increased first”.

Q: With “D456N: Phi29 exo(−) (D12A/D66A) polymerase mutant [Variant D456N]” as the molecule, how does the “Activity … more signals” value [3] read?
A: The value was “Fewer signals”.

Q: And the “extension under limiting conditions” value (γ-dGTP; 1 μM γ-dGTP)?
A: The value was “significant impact”.

Q: What about the “extension under limiting conditions” value (γ-dGTP; 1 μM γ-dGTP, listed as D456 to an asparagine) of the same molecule?
A: The value was “significantly reduced extension”.

Q: What about the “extension under permissive conditions” value (γ-dGTP; 5 minutes with 5 μM nucleotides) of the same molecule?
A: Its value is “somewhat reduced extension”.

Q: What about the “Ensemble Extension Activity: γ-nucleotide incorporation” value [4] of the same molecule?
A: Its value is “Impaired”.

Q: Which Inc50 (dG2Oy650) does the source give for “E375A: Phi29 exo(−) (D12A/D66A) polymerase mutant [Variant E375A]” here?
A: Its Inc50 is “reduced”.

Q: And the “Activity … more signals” value [3]?
A: The value was 3x more signals.

Q: And the “extension (FIG. 70C, 70D)” value ([4]; γ-nucleotides)?
A: Its value is “increased extension”.

Q: And the “Ensemble Extension Activity: γ-nucleotide incorporation” value [4]?
A: Its value is “More efficient”.

Q: And the “Fidelity (mis-incorporation)” value [5]?
A: The value was “No mis-”.

Q: Which exonuclease activity [2] does the source give for “N62D: mutant based on wild type Φ29 DNA polymerase [Variant N62D]” here?
A: The exonuclease activity was “Still has exo”.

Q: Which results are given for “Parent Enzyme Phi29exo(−) D12A/D66A: Phi29 polymerase with mutations D12A and D66A, SEQ. ID: 3, reduced exonuclease activity”?
A: exonuclease activity ([2]; listed as D12A/D66A): exo deficient; exonuclease activity ([2]; listed as Phi29 exo(−)): reduced exonuclease activity; Activity on Detection System: more signals [3]: Benchmark; Ensemble Extension Activity: γ-nucleotide incorporation [4]: Benchmark; appearance of BL-signals after injection (window; peak bin for parent) [6]: 121 to 180 s; frequency of γ-signals detected [6]: few signals are detected; Fidelity (mis-incorporation) [5]: No mis-

Q: Which Inc50 (dG2Oy650) does the source give for “Phi29: Phi29 polymerase benchmark of the Inc50 comparison in Table 1; probably the exo(−) parent [reference compound]” here?
A: Its Inc50 is “(Phi29 = 0.14)”.

Q: Which results are given for “Q380A: Phi29 exo(−) (D12A/D66A) polymerase mutant [Variant Q380A]”?
A: Activity on Detection System: more signals [3]: 2.5x more signals.; Ensemble Extension Activity: γ-nucleotide incorporation [4]: More efficient; Fidelity (mis-incorporation) [5]: No mis-

Q: Which exonuclease activity [2] does the source give for “T15I: mutant based on wild type Φ29 DNA polymerase [Variant T15I]” here?
A: The exonuclease activity was “Still has exo”.

Q: Which “Activity … more signals” value [3] does the source give for “V250A/E375A/Q380A: Phi29 exo(−) (D12A/D66A) polymerase mutant” here?
A: The value was 3x more signals.

Q: And the “Activity on Detection System: Signals detected (timing of appearance)” value [3]?
A: The value was “earlier”.

Q: And the “Activity on Detection System: high ASB signals” value [3]?
A: Its value is “More high ASB signals”.

Q: What about the “Activity on Detection System: long duration signals” value [3] of the same molecule?
A: Its value is “More long duration”.

Q: And the “Ensemble Extension Activity: γ-nucleotide incorporation” value [4]?
A: The value was “Decreased rate”.

Q: What about the “Fidelity (mis-incorporation)” value [5] of the same molecule?
A: The value was “appears to remain intact; also recorded: No mis-”.

Q: Which results are given for “V250A/E375C: Phi29 exo(−) (D12A/D66A) polymerase mutant”?
A: Activity on Detection System: more signals [3]: 3.5x more signals.; Activity on Detection System: Signals detected (timing of appearance) [3]: earlier.; Activity on Detection System: long duration signals [3]: More long duration; Ensemble Extension Activity: γ-nucleotide incorporation [4]: Decreased rate; Fidelity (mis-incorporation) [5]: appears to remain intact; also recorded: No mis-

Q: Which “Activity … more signals” value [3] does the source give for “V250A/E375Y: Phi29 exo(−) (D12A/D66A) polymerase mutant” here?
A: The value was 3x more signals.

Q: And the “Activity on Detection System: high ASB signals” value [3]?
A: Its value is “More high ASB signals”.

Q: What about the “Activity on Detection System: long duration signals” value [3] of the same molecule?
A: Its value is “More long duration”.

Q: What about the “ASN of signals (population of molecules)” value ([3]; signals with ASN≧4) of the same molecule?
A: Its value is “higher ASN”.

Q: What about the “duration of signals (population of molecules)” value ([3]; signals with ASN≧4) of the same molecule?
A: Its value is “longer duration”.

Q: And the “frequency of events detected” value ([3]; signals with ASN≧4)?
A: The value was “higher frequency of events detected”.

Q: What about the “extension (FIG. 70C, 70D)” value ([4]; γ-nucleotides, listed as 2) of the same molecule?
A: Its value is “slowed in incorporation”.

Q: What about the “extension (FIG. 70C, 70D)” value ([4]; γ-nucleotides, listed as Variant 2) of the same molecule?
A: Its value is “improved”.

Q: What about the “Ensemble Extension Activity: γ-nucleotide incorporation” value [4] of the same molecule?
A: The value was “Decreased rate”.

Q: What about the “appearance of BL-signals after injection (window; peak bin for parent)” value [6] of the same molecule?
A: The value was 0 to 120 s.

Q: What about the “time after injection in which most of the γ-signals are detected” value [6] of the same molecule?
A: The value was at most 60 s.

Q: And the “frequency of γ-signals detected” value [6]?
A: The value was “higher frequency”.

Q: What about the “Fidelity (mis-incorporation)” value [5] of the same molecule?
A: The value was “appears to remain intact; also recorded: No mis-”.

Q: For “V250A: Phi29 exo(−) (D12A/D66A) polymerase mutant [Variant V250A]”, which Inc50 (dG2Oy650) is on record?
A: The Inc50 was “remains relatively unaffected”.

Q: What about the “Activity … more signals” value [3] of the same molecule?
A: Its value is “Fewer signals”.

Q: What about the “extension within a minute” value (γ-dGTP; 1 μM γ-dGTP) of the same molecule?
A: Its value is “at least 5 bases”.

Q: What about the “extension under limiting conditions” value (γ-dGTP; 1 μM γ-dGTP) of the same molecule?
A: Its value is “visibly slowing down extension”.

Q: And the “extension (FIG. 70C, 70D)” value ([4]; γ-nucleotides)?
A: Its value is “decreased”.

Q: And the “Ensemble Extension Activity: γ-nucleotide incorporation” value [4]?
A: Its value is “Decreased rate”.
